Laboratory results taken from US11753407B2, “Compounds for treating spinal muscular atrophy” (PTC Therapeutics, Inc., priority 2012, dated 2023).

Columns and labels:
[1] = test system: SMN2 minigene mRNA (SMN2-A minigene) in HEK293H cells; assay: SMN2 minigene mRNA splicing RT-qPCR assay in cultured cells; assay type: cell-based, human; details: Homo sapiens, HEK293-H; concentration increasing full length SMN2 mRNA 1.5-fold relative to vehicle-treated cells; HEK293H cells with SMN2-A minigene, 24 hours, 7-point concentration data; read-out: EC1.5x for production of full length SMN2 mRNA
In short: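 HEK293H cells stably carrying the SMN2-A minigene were treated for 24 h at 37 °C with a 7-point, 3.16-fold dilution series of compound. Multiplex RT-qPCR measured exon 7-containing minigene FL mRNA against GAPDH, expressed relative to vehicle by modified ΔΔCt; the EC1.5× is the concentration giving a 1.5-fold increase.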

[2] = test system: Smn protein in SMA patient fibroblast cells (GM03813); assay: Smn protein assay in cultured cells (SMN HTRF); assay type: cell-based, human; details: SMA patient fibroblast cells, 48 hours; for maximum fold (Fold) increase of Smn protein: 7-point concentration data, fold relative to vehicle control; for EC1.5x for Smn protein expression: 7-point concentration curve, SMN HTRF, concentration producing 1.5 times Smn protein vs DMSO vehicle control
In short: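 SMA patient fibroblasts (5,000 cells/well, DMEM-10% FBS) were treated for 48 h at 37 °C with a 7-point, 3.16-fold dilution series in triplicate. RIPA lysates were probed by HTRF (anti-SMN d2/kryptate, overnight, room temperature), reading 665/620 nm. EC1.5× is the concentration giving 1.5-fold Smn over DMSO vehicle.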

Row | melting point | Structure (SMILES) | EC (1.5-fold increase) [1] [µM] | maximum fold (Fold) increase of Smn protein [2] | EC1.5x for Smn protein expression [2]
1 | 248 to 250 °C | Cc1cc(-c2cc(=O)n3cc(N4CCN[C@@H](C)C4)ccc3n2)cc2cnn(C)c12 [Compound 777, 2-(1,7-dimethyl-1H-indazol-5-yl)-7-[(3S)-3-methylpiperazin-1-yl]-4H-pyrido[1,2-a]pyrimidin-4-one] | 1 to 3 | *** (a fold increase between >1.35 and ≤1.5 is indicated by three stars (***)) | ** (an EC1.5× between >1 μM and ≤3 μM is indicated by two stars (**))
2 | 255 to 263 °C | Cc1cc(C2CCN(C)CC2)cn2c(=O)cc(-c3ccc4c(cnn4C)c3)nc12 [Compound 784, 9-methyl-2-(1-methyl-1H-indazol-5-yl)-7-(1-methylpiperidin-4-yl)-4H-pyrido[1,2-a]pyrimidin-4-one] | 0.1 to 0.3 | **** (a fold increase between >1.5 and ≤1.65 is indicated by four stars (****)) | *** (an EC1.5× between >0.3 μM and ≤1 μM is indicated by three stars (***))
3 | 236 to 240 °C | CCN1CCC(c2cc(C)c3nc(-c4ccc5c(cnn5C)c4)cc(=O)n3c2)CC1 [Compound 786, 7-(1-ethylpiperidin-4-yl)-9-methyl-2-(1-methyl-1H-indazol-5-yl)-4H-pyrido[1,2-a]pyrimidin-4-one] | 0.1 to 0.3 | **** (a fold increase between >1.5 and ≤1.65 is indicated by four stars (****)) | *** (an EC1.5× between >0.3 μM and ≤1 μM is indicated by three stars (***))
4 | 225 to 228 °C | Cc1cc(C2CCN(CCO)CC2)cn2c(=O)cc(-c3ccc4c(cnn4C)c3)nc12 [Compound 788, 7-[1-(2-hydroxyethyl)piperidin-4-yl]-9-methyl-2-(1-methyl-1H-indazol-5-yl)-4H-pyrido[1,2-a]pyrimidin-4-one] | < 0.1 | ***** (a fold increase >1.65 is indicated by five stars (*****)) | **** (an EC1.5x≤0.3 μM is indicated by four stars (****))
5 | 210 to 216 °C | CCc1nc(C)cn2nc(-c3cc(=O)n4cc(C5CCN(CCO)CC5)cc(C)c4n3)cc12 [Compound 793, 2-(4-ethyl-6-methylpyrazolo[1,5-a]pyrazin-2-yl)-7-[1-(2-hydroxyethyl)piperidin-4-yl]-9-methyl-4H-pyrido[1,2-a]pyrimidin-4-one] | < 0.1 | ***** (a fold increase >1.65 is indicated by five stars (*****)) | **** (an EC1.5x≤0.3 μM is indicated by four stars (****))

More lines, now with the values behind:

Row | Structure (SMILES) | melting point | EC (1.5-fold increase) [1] [µM] | maximum fold (Fold) increase of Smn protein [2] | EC1.5x for Smn protein expression [2]
6 | Cc1cc(-c2cc(=O)n3cc(N4CCNCC4)ccc3n2)cc2cnn(C)c12 [Compound 776, 2-(1,7-dimethyl-1H-indazol-5-yl)-7-(piperazin-1-yl)-4H-pyrido[1,2-a]pyrimidin-4-one] | 160 to 163 °C | 1 to 3 | ** (a fold increase between >1.2 and ≤1.35 is indicated by two stars (**)) | –
7 | CCN(CC)C[C@@H]1CCN(c2ccc3nc(-c4cc5c(C)nc(C)cn5n4)cc(=O)n3c2)C1 [Compound 778, 7-{(3S)-3-[(diethylamino)methyl]pyrrolidin-1-yl}-2-(4,6-dimethylpyrazolo[1,5-a]pyrazin-2-yl)-4H-pyrido[1,2-a]pyrimidin-4-one] | 194 to 196 °C | < 0.1 | ***** (a fold increase >1.65 is indicated by five stars (*****)) | *** (an EC1.5× between >0.3 μM and ≤1 μM is indicated by three stars (***))
8 | Cc1cn2nc(-c3cc(=O)n4cc(N5CC(CN(C)C)C5)ccc4n3)cc2c(C)n1 [Compound 780, 7-{3-[(dimethylamino)methyl]azetidin-1-yl}-2-(4,6-dimethylpyrazolo[1,5-a]pyrazin-2-yl)-4H-pyrido[1,2-a]pyrimidin-4-one] | 228 to 230 °C | < 0.1 | ***** (a fold increase >1.65 is indicated by five stars (*****)) | **** (an EC1.5x≤0.3 μM is indicated by four stars (****))
9 | CCN(CC)CC1CN(c2ccc3nc(-c4cc5c(C)nc(C)cn5n4)cc(=O)n3c2)C1 [Compound 781, 7-{3-[(diethylamino)methyl]azetidin-1-yl}-2-(4,6-dimethylpyrazolo[1,5-a]pyrazin-2-yl)-4H-pyrido[1,2-a]pyrimidin-4-one] | 205 to 207 °C | < 0.1 | ***** (a fold increase >1.65 is indicated by five stars (*****)) | **** (an EC1.5x≤0.3 μM is indicated by four stars (****))
10 | CCc1nc(C)cn2cc(-c3cc(=O)n4cc(N5CCN6CCC[C@H]6C5)ccc4n3)cc12 [Compound 782, 2-(1-ethyl-3-methylpyrrolo[1,2-a]pyrazin-7-yl)-7-[(8aS)-hexahydropyrrolo[1,2-a]pyrazin-2(1H)-yl]-4H-pyrido[1,2-a]pyrimidin-4-one] | 220 to 222 °C | < 0.1 | ***** (a fold increase >1.65 is indicated by five stars (*****)) | **** (an EC1.5x≤0.3 μM is indicated by four stars (****))
11 | CCc1nc(C)cn2nc(-c3cc(=O)n4cc(N5CCN[C@H](C)C5)cc(C)c4n3)cc12 [Compound 783, 2-(4-ethyl-6-methylpyrazolo[1,5-a]pyrazin-2-yl)-9-methyl-7-[(3R)-3-methylpiperazin-1-yl]-4H-pyrido[1,2-a]pyrimidin-4-one] | 223 to 233 °C | < 0.1 | ***** (a fold increase >1.65 is indicated by five stars (*****)) | **** (an EC1.5x≤0.3 μM is indicated by four stars (****))
12 | CCc1nc(C)cn2nc(-c3cc(=O)n4cc(N5CCN(C)[C@H](C)C5)cc(C)c4n3)cc12 [Compound 785, 7-[(3R)-3,4-dimethylpiperazin-1-yl]-2-(4-ethyl-6-methylpyrazolo[1,5-a]pyrazin-2-yl)-9-methyl-4H-pyrido[1,2-a]pyrimidin-4-one] | 234 to 240 °C | < 0.1 | ***** (a fold increase >1.65 is indicated by five stars (*****)) | **** (an EC1.5x≤0.3 μM is indicated by four stars (****))
13 | CCc1nc(C)cn2nc(-c3cc(=O)n4cc(N5CCN[C@@H](C)C5)cc(C)c4n3)cc12 [Compound 787, 2-(4-ethyl-6-methylpyrazolo[1,5-a]pyrazin-2-yl)-9-methyl-7-[(3S)-3-methylpiperazin-1-yl]-4H-pyrido[1,2-a]pyrimidin-4-one] | 227 to 236 °C | < 0.1 | ***** (a fold increase >1.65 is indicated by five stars (*****)) | **** (an EC1.5x≤0.3 μM is indicated by four stars (****))
14 | CCc1nc(C)cn2nc(-c3cc(=O)n4cc(N5CCN(C)[C@@H](C)C5)cc(C)c4n3)cc12 [Compound 789, 7-[(3S)-3,4-dimethylpiperazin-1-yl]-2-(4-ethyl-6-methylpyrazolo[1,5-a]pyrazin-2-yl)-9-methyl-4H-pyrido[1,2-a]pyrimidin-4-one] | 235 to 241 °C | < 0.1 | ***** (a fold increase >1.65 is indicated by five stars (*****)) | **** (an EC1.5x≤0.3 μM is indicated by four stars (****))
15 | Cc1nc(C2=CCNCC2)cn2c(=O)cc(-c3ccc4nn(C)cc4c3)nc12 [Compound 791, 9-methyl-2-(2-methyl-2H-indazol-5-yl)-7-(1,2,3,6-tetrahydropyridin-4-yl)-4H-pyrazino[1,2-a]pyrimidin-4-one] | > 240 °C (dec.) | < 0.1 | ***** (a fold increase >1.65 is indicated by five stars (*****)) | **** (an EC1.5x≤0.3 μM is indicated by four stars (****))
16 | CCc1nc(C)cn2nc(-c3cc(=O)n4cc(C5CCN(C6CCC6)CC5)cc(C)c4n3)cc12 [Compound 792, 7-(1-cyclobutylpiperidin-4-yl)-2-(4-ethyl-6-methylpyrazolo[1,5-a]pyrazin-2-yl)-9-methyl-4H-pyrido[1,2-a]pyrimidin-4-one] | 231 to 237 °C | < 0.1 | ***** (a fold increase >1.65 is indicated by five stars (*****)) | *** (an EC1.5× between >0.3 μM and ≤1 μM is indicated by three stars (***))
17 | CCc1cc(-c2cc(=O)n3cc(N4CCN5CCC[C@@H]5C4)ccc3n2)cn2cc(C)nc12 [Compound 794, 2-(8-ethyl-2-methylimidazo[1,2-a]pyridin-6-yl)-7-[(8aR)-hexahydropyrrolo[1,2-a]pyrazin-2(1H)-yl]-4H-pyrido[1,2-a]pyrimidin-4-one] | 231 to 235 °C | < 0.1 | ***** (a fold increase >1.65 is indicated by five stars (*****)) | **** (an EC1.5x≤0.3 μM is indicated by four stars (****))
